The source made the active and inactive calls.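 Rule for the calls: active = fitted half-maximal concentration for change in GFP expression of 33 µM or less; inactive = the rest.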

System in the first experiment: not listed separately
Description: concentration-dependent AGP1-GFP change, TOR pathway – cell-based, flow cytometry, S. cerevisiae, MLPCN hits, dose response (AID 2743). Particulars: S. cerevisiae AGP1-GFP strain, flow cytometry GFP, 3 h; at 33 µM (top of the series).
Take `Cc1ccc(C)c(/C=C/C(=O)c2ccccc(=O)c2O)c1`: the GFP fluorescence (kMESF) is 10.5 kMESF (inactive). Same read-out and setting: in the case of `COc1cc(C=C2C(=O)c3ccccc3C2=O)cc(OC)c1OC` it was 38.9 kMESF (inactive); in that of `CCN1/C(=C/C(C)=C/c2sc3ccccc3[n+]2CC)Sc2ccccc21`, 47.5 kMESF (inactive); in that of `O=C1C=CC(=O)N1c1ccc(N2CCCCC2)cc1`, 46.9 kMESF (inactive). Regarding `CN(O)/C=c1/ccc2c(n1)C(=O)C=CC=2`, the GFP fluorescence (kMESF) was 39.5 kMESF (inactive). The same measure, in the same setting: in the case of `Oc1c(I)cc(Cl)c2cccnc12` it was 25 kMESF (inactive); in that of `Cc1[nH]c2ccccc2c1C(=O)COC(=O)c1ccc([N+](=O)[O-])s1`, 16.9 kMESF (inactive); in that of `Cc1ccccc1[C@]1(C)ON(c2ccccc2C(F)(F)F)C1=O`, 34.6 kMESF (inactive).

Take `Cc1ccc(NC(=O)c2ccc(Cl)c(N3C(=O)C=CC3=O)c2)cc1`: the GFP fluorescence (kMESF) was 27.1 kMESF (inactive). Same read-out and setting: as for `O=C(CSC1=NS(=O)(=O)c2ccccc21)Nc1ccccc1`, the figure is 27.1 kMESF (inactive); as for `CCOC(=O)COc1ccc2ccccc2c1/C=C/[N+](=O)[O-]`, 29.3 kMESF (inactive); as for `O=c1[nH]c(-c2ccccn2)nc(C(F)(F)F)c1Br`, 36.9 kMESF (inactive).

`COc1cc(N2C(=O)C=CC2=O)c(OC)cc1Cl`: the GFP fluorescence (kMESF) was 33.8 kMESF (inactive). Turning to `CC1(C(=O)NC(=S)NNC(=O)c2ccncc2)CCCCC1`, the GFP fluorescence (kMESF) was 34.2 kMESF (inactive). As for `Cc1cc(C)c(OCC(=O)Nc2nc(-c3ccccn3)cs2)c(C)c1`, the GFP fluorescence (kMESF) was 28.8 kMESF (inactive). Still for that read-out and setting: as for `O=[N+]([O-])c1cc(F)c2cccnc2c1O`, the figure is 43.3 kMESF (inactive); as for `N/C(=N\OC(=O)c1cccc(Br)c1)c1ccccc1`, 21.7 kMESF (inactive). In the case of `CCc1cccc2sc(N3CCN(C(=O)c4ccc([N+](=O)[O-])o4)CC3)nc12`, the GFP fluorescence (kMESF) is 12.4 kMESF (inactive). The same measure, in the same setting: in the case of `N#C/C(=C\c1ccccn1)c1nc2ccccc2s1` it was 41.8 kMESF (inactive); in that of `CC(C)[C@]1(c2ccccc2)ON(c2ccccc2C(F)(F)F)C1=O`, 34.2 kMESF (inactive); in that of `C#CCOCCOCCOCCNc1nc(N2CCN(C(=O)CCCCCCCCCCNC(=O)[C@@H](CCC(=O)O)n3cc(CCCCCN)nn3)CC2)nc(N2CCN(C(=O)CCCCCCCCCCNC(=O)[C@H](CCCCN)n3cc(C[C@@H](C)CC)nn3)CC2)n1`, 51.4 kMESF (inactive). Same read-out and setting: in the case of `CC(Oc1cccc(Cl)c1)C(=O)Nc1nc(-c2ccccn2)cs1` (stereo not drawn) it was 50.7 kMESF (inactive); in that of `ClC(Cl)(c1nnnn1-c1ccccc1)c1nnnn1-c1ccccc1`, 35.1 kMESF (inactive); in that of `COc1ccc(N=Nc2ccc(O)c3ncccc23)cc1`, 40.8 kMESF (inactive). Same read-out and setting: in the case of `N/C(Cc1ccc(Cl)cc1)=N\OC(=O)c1ccccc1` it was 23.8 kMESF (inactive); in that of `CCOC(=O)c1ccc(N=Cc2nc(-c3ccccc3)oc2OC(C)=O)cc1`, 33.5 kMESF (inactive). `O=C(OCC(=O)N1CCN(C(=O)c2ccco2)CC1)c1cc(-c2ccccc2)nc2ccccc12`: the GFP fluorescence (kMESF) was 43.7 kMESF (inactive). As for `COc1cc(/C=C2/C(=O)c3cccc([N+](=O)[O-])c3C2=O)c(Br)cc1O`, the GFP fluorescence (kMESF) is 32.9 kMESF (inactive). The same measure, in the same setting: as for `COc1ccc([C@@]2(C(C)C)ON(c3ccccc3C(F)(F)F)C2=O)cc1`, the figure is 39.4 kMESF (inactive); as for `COC(=O)/C(=C/c1c[nH]c2ccccc12)[N+](=O)[O-]`, 39.1 kMESF (inactive); as for `CCOc1ccc(N/N=C(/C#N)C(N)=O)cc1`, 54.7 kMESF (inactive). Still for that read-out and setting: in the case of `Cc1cc(=O)n2c3c(sc2n1)C(=O)N(Cc1ccccc1)C3=O` it was 44.3 kMESF (inactive); in that of `CCN(CC)c1ccc2cc(-c3nc(-c4ccc(OC)cc4)cs3)c(=O)oc2c1`, 40.6 kMESF (inactive); in that of `O=C(Nc1nnc(-c2ccc3c(c2)CCCC3)o1)c1ccc(Cl)cc1Cl`, 20.9 kMESF (inactive).

In the case of `O=C1C2C3C=CC(CO)(O3)C2C(=O)N1c1ccc(-c2ccccc2)cc1` (stereo not drawn), the GFP fluorescence (kMESF) was 40.8 kMESF (inactive). On the same count and under the same terms, in the case of `COc1cc(CNC(=O)CCCCCCC(C)C)ccc1O` it was 46.8 kMESF (inactive).

For the molecule `O=C(c1ccc(Cl)cc1)N1CCN(c2cccc3[nH]ccc23)CC1`, the GFP fluorescence (kMESF) was 46.1 kMESF (inactive). As to `O=C1c2cccc3c([N+](=O)[O-])ccc(c23)C(=O)N1CCc1ccccn1`, the GFP fluorescence (kMESF) is 44.1 kMESF (inactive). For `Cc1cc(NC(c2ccc(Cl)cc2)c2ccc3cccnc3c2O)no1` (stereo not drawn), the GFP fluorescence (kMESF) was 34 kMESF (inactive). The same measure, in the same setting: as for `O=C(Oc1cccc2cccnc12)c1ccc(Br)o1`, the figure is 38.2 kMESF (inactive); as for `Cc1[nH][nH]c(=O)c1C(c1ccc(-c2ccc(Cl)c(Cl)c2)o1)c1c(C)[nH][nH]c1=O`, 43.7 kMESF (inactive). Consider `O=c1[nH]c(-c2ccc(Cl)cc2)cs1`, for which the GFP fluorescence (kMESF) is 39.4 kMESF (inactive). Same read-out and setting: as for `O=C(NNC(=S)NC(=O)C12CC3CC(CC(C3)C1)C2)c1ccncc1`, the figure is 33.2 kMESF (inactive). Still for that read-out and setting: as for `CC(=O)OC[C@]12CC[C@H]3[C@@](C)(CC[C@H]4C(C)(C)CCC[C@]34C)[C@@H]1C[C@H](C1=CC(=O)O[C@@H]1OC(C)=O)O2`, the figure is 31 kMESF (inactive); as for `O=C1N(c2ccccc2C(F)(F)F)O[C@]1(c1ccccc1)C1CCCCC1`, 34.3 kMESF (inactive). With `O=C(c1ccc(Cl)c([N+](=O)[O-])c1)N1CCN(c2ccccc2)CC1`, the GFP fluorescence (kMESF) was 62.6 kMESF (inactive). The same measure, in the same setting: in the case of `Cc1cc(Br)c2c(c1)/C(=C/C(=O)c1cccs1)C(=O)N2` it was 38.7 kMESF (inactive); in that of `O=C(/C=C/c1ccccc1)NC(=S)NNC(=O)Cc1cccs1`, 41.4 kMESF (inactive); in that of `CCCc1ccc(OCC(=O)NNC(=S)NC(=O)c2ccco2)cc1`, 38.1 kMESF (inactive). On to `O=[N+]([O-])c1cc(CN2CCN(c3cccc(C(F)(F)F)c3)CC2)c2cccnc2c1O`, for which the GFP fluorescence (kMESF) is 32.2 kMESF (inactive). The same measure, in the same setting: as for `COc1ccc(C=C2C(=O)c3ccccc3C2=O)cc1O`, the figure is 34.7 kMESF (inactive); as for `Cc1ccc(C(c2cc(Cl)c3cccnc3c2O)N2CCN(C)CC2)cc1` (stereo not drawn), 27.9 kMESF (inactive).

On to `CCn1c(/C=C/c2ccc([N+](=O)[O-])o2)nc2ccccc2c1=O`, for which the GFP fluorescence (kMESF) was -51 kMESF (inactive).

For `CCCc1cc(=O)oc2cc(C)cc(OCC(=O)NC3CC3)c12`, the GFP fluorescence (kMESF) is 41 kMESF (inactive).

`Cc1ccc(N2C(=O)CC(Sc3ncn[nH]3)C2=O)cc1C` (stereo not drawn): the GFP fluorescence (kMESF) is 49.6 kMESF (inactive).

Regarding `Oc1c(CN2CCCCC2)cc(Br)c2cccnc12`, the GFP fluorescence (kMESF) is 46.9 kMESF (inactive).

Consider `Cc1ccc(S(=O)(=O)N2CC(C(=O)O)=CC[C@H]2c2ccc(Cl)cc2)cc1`, for which the GFP fluorescence (kMESF) was 39.2 kMESF (inactive). `Cc1ccccc1OCCOC(=O)c1ccc(S(=O)(=O)N2CCCC2)cc1`: the GFP fluorescence (kMESF) is 38.1 kMESF (inactive). With `Cc1cc(O)c(C(=O)/C=C/c2ccc(Cl)cc2)c(=O)o1`, the GFP fluorescence (kMESF) was 40.1 kMESF (inactive). Still for that read-out and setting: in the case of `CC(c1ccccc1)N1C(=O)/C(=C/c2ccncc2)SC1=S` (stereo not drawn) it was 24.4 kMESF (inactive).

The subject of the next experiment is S. cerevisiae AGP1-GFP strain, flow cytometry GFP, 3 h. Described as above.
Conditions: not given
For orientation: EC50 means the concentration needed to bring the measured effect to its halfway point. As to `CCN(CC)C(=O)Oc1ccnc2cc(Cl)ccc12`, the EC50 is 7220 nM. The same measure, in the same setting: as for `O=C(OCC(=O)N1CCN(C(=O)c2ccco2)CC1)c1cc(-c2cccc(Br)c2)nc2ccccc12`, the figure is 2810 nM. Still for that read-out and setting: as for `O=C(Oc1ccnc2cc(Cl)ccc12)N1CCCCCC1`, the figure is 3860 nM.

Turning to `CCOC(=O)CCS(=O)(=O)c1nc(-c2ccccc2)cc(C(F)(F)F)n1`, the EC50 is 941 nM. `CC(C)(C)C(=O)C(Cl)C(=O)Nc1ccccc1` (stereo not drawn): the EC50 was 570 nM. The same measure, in the same setting: in the case of `CCCOc1ccc(C(=O)NNC(=S)NC(=O)CC)cc1` it was 1940 nM; in that of `CS(=O)(=O)c1nc(-c2ccccc2)cc(C(F)(F)F)n1`, 653 nM; in that of `CC(=O)c1ccc(N2CCN(C(=O)c3ccc(Br)cc3)CC2)c(F)c1`, 6920 nM. On to `Cc1cccc(C)c1NC(=O)C(Cl)C(=O)c1ccccc1` (stereo not drawn), for which the concentration for a half-maximal effect (EC50) was 781 nM. Turning to `COc1ccc(N2CCN(C(=O)c3ccc(Br)cc3)CC2)c([N+](=O)[O-])c1`, the EC50 is 3840 nM. Still for that read-out and setting: as for `Cc1ccc(S(=O)(=O)/N=C(\Sc2ccccc2)c2ccccc2)cc1`, the figure is 822 nM; as for `CNc1nc(N)c([N+](=O)[O-])c(Nc2cccc(F)c2)n1`, 9390 nM; as for `COC(=O)CCS(=O)(=O)c1nc(-c2ccccc2)cc(C(F)(F)F)n1`, 943 nM.

Consider `CCOC(=O)CS(=O)(=O)c1nc(-c2ccccc2)cc(C(F)(F)F)n1`, for which the EC50 was 1380 nM. As for `O=C(C#Cc1cccc([N+](=O)[O-])c1)c1ccccc1`, the EC50 is 305 nM.

As for `O=C(OCC(=O)N1CCN(C(=O)c2ccco2)CC1)c1cc(-c2ccccc2)nc2ccccc12`, the EC50 was 2830 nM. Regarding `CS(=O)(=O)c1nc(-c2cccs2)cc(C(F)(F)F)n1`, the EC50 was 872 nM. For the molecule `CN1CCN(C(=O)c2cc(COc3c(F)cccc3F)on2)CC1c1ccccc1` (stereo not drawn), the EC50 is 3890 nM.
